In patent US8513440B2, “Compositions and methods comprising analogues of radicicol A” (Universite de Strasbourg, priority 2007, dated 2013):
“Also recorded” adds a separate entry of the source.

What was measured:
VEGF-R3 = target: T1, VEGF-R3 (Homo sapiens, UniProt P35916); test: radiometric protein kinase assay (33PanQinase Activity Assay); assay type: biochemical; conditions: for Inhibition of Kinases IC50 / IC50: panel of 24 kinases, 1 μM ATP; for IC50: read-out: Inhibition of Kinases IC50
T1 construct: made in house; host or cells: Sf9 insect cells (baculovirus)
T1 sequence (P35916 25-1363): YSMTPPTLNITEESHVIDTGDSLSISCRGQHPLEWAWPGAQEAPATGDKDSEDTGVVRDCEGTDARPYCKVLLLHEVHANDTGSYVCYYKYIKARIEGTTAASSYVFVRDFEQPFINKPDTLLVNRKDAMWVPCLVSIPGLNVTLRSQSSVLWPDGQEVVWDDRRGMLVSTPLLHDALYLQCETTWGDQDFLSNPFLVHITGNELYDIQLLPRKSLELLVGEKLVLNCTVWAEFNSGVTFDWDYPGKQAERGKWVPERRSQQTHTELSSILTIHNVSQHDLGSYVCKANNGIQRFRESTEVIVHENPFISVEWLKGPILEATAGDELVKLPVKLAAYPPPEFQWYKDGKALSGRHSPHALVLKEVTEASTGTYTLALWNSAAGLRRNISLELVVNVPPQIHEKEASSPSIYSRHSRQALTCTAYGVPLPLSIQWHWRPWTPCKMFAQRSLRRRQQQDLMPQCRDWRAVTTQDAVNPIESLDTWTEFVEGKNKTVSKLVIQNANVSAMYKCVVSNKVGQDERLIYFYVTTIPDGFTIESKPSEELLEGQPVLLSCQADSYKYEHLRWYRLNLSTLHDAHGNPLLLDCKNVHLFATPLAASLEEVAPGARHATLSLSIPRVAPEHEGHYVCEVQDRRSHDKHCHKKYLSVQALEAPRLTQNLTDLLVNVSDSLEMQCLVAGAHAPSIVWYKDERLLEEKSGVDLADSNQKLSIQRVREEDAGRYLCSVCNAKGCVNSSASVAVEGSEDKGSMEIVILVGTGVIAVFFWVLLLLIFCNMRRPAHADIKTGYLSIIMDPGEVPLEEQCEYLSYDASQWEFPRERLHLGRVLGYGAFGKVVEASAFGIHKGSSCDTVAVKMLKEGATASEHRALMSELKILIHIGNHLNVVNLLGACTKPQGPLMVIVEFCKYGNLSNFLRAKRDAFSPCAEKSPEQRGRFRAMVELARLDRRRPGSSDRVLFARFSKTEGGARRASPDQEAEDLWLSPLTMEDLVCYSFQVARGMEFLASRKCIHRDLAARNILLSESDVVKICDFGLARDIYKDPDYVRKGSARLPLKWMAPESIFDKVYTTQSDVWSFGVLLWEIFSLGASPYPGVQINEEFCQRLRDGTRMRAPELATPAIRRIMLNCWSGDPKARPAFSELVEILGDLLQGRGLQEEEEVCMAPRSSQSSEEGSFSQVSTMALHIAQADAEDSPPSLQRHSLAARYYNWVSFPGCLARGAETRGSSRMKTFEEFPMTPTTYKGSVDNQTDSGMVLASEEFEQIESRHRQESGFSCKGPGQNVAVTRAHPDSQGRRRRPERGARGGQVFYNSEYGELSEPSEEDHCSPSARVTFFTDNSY
Description: (§1) Radicicol A (1) and analogues 3 and 31 were tested for its inhibition in a panel of 24 kinase (AKT1, ARKS, Aurora-A, Aurora-B, B-RAF-VE, CDK2/CycA, CDK4/CycD1, CK2-α1, FAK, EPHB4, ERB2, EGF-R, IGF1-R, SRC, VEGF-R2, VEGF-R3, FLT3, INS-R, MET, PDGFR-β, PLK1, SAK, TIE2, COT) at 10 μM using the procedure described below.
(§2) All protein kinases were expressed in Sf9 insect cells as human recombinant GST-fusion proteins or His-tagged proteins by means of the baculovirus expression system. Kinases were purified by affinity chromatography using either GSH-agarose (Sigma) or Ni-NTH-agarose (Qiagen). The purity of each kinase was checked by SDS-PAGE/silver staining and the identity of each kinase was verified by western blot analysis with kinase specific antibodies or by mass spectroscopy.
(§3) A radiometric protein kinase assay (^33PanQinase® Activity Assay) was used for measuring the kinase activity of the 24 protein kinases. All kinase assays were performed in 96-well FIashPlates™ from Perkin Elmer (Boston, Mass., USA) in a 50 μl reaction volume. The reaction cocktail was pipetted in 4 steps in the following order: • 20 μl of assay buffer • 5 μl of ATP solution (in H2O) • 5 μl of test compound (in 10% DMSO) • 10 μl of substrate/10 μl of enzyme solution (premixed)
(§4) The assay for all enzymes contained 60 mM HEPES-NaOH, pH 7.5, 3 mM MgCl2, 3 mM MnCl2, 3 μM Na-orthovanadate, 1.2 mM DTT, 50 μg/ml PEG20000, 1 μM [γ-^33P]-ATP (approx. 5×10^05 cpm per well).
(§5) The reaction cocktails were incubated at 30° C. for 80 minutes. The reaction was stopped with 50 μl of 2% (v/v) H3PO4, plates were aspirated and washed two times with 200 μl of 0.9% (w/v) NaCl or 200 μl H2O. Incorporation of ^33Pi was determined with a microplate scintillation counter (Microbeta Trilux, Wallac). All assays were performed with a BeckmanCoulter/Sagian robotic system.
(§6) Using the same method described above, compound 31 was evaluated in a panel of 127 kinase enzymes.

FLT3 = target: T2, FLT3 (Homo sapiens, UniProt P36888); test: as above; assay type: biochemical; conditions: for Inhibition of Kinases IC50 / IC50: panel of 24 kinases, 1 μM ATP; for IC50: read-out: Inhibition of Kinases IC50
T2 construct: made in house; host or cells: Sf9 insect cells (baculovirus)
T2 sequence (P36888 27-993): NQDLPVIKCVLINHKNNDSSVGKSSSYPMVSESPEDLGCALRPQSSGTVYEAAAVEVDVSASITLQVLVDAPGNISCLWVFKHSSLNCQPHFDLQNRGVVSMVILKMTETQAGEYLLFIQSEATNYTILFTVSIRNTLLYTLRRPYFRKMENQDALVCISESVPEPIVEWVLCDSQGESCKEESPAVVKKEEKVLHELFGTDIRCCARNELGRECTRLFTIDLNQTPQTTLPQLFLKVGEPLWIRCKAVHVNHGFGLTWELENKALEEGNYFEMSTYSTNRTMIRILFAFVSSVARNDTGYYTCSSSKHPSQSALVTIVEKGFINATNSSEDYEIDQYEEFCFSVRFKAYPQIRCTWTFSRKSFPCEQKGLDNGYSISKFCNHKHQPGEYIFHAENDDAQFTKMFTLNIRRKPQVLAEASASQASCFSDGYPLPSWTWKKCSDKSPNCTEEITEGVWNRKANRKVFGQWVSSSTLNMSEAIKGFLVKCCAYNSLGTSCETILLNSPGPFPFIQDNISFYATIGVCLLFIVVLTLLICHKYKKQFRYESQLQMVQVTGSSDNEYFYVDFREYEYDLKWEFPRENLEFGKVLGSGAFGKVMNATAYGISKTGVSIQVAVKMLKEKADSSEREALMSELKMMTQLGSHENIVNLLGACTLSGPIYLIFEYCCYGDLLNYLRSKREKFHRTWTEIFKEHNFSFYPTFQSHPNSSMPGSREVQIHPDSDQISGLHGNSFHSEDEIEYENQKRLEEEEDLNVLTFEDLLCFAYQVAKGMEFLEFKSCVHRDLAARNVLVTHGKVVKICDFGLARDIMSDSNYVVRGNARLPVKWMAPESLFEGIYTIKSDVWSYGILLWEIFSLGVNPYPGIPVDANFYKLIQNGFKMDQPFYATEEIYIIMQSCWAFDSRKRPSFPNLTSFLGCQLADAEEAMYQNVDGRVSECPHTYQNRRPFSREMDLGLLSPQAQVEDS
Description: as §1, §2, §3, §4, §5, §6

B-RAF-VE = target: T3, B-RAF-VE (Homo sapiens, UniProt P15056, V600E); test: as above; assay type: biochemical; conditions: panel of 24 kinases, 1 μM ATP, read-out: Inhibition of Kinases IC50
T3 construct: made in house; host or cells: Sf9 insect cells (baculovirus)
Description: as §1, §2
A radiometric protein kinase assay (^33PanQinase® Activity Assay) was used for measuring the kinase activity of the 24 protein kinases. All kinase assays were performed in 96-well FIashPlates™ from Perkin Elmer (Boston, Mass., USA) in a 50 μl reaction volume. […]
(§7) The reaction cocktails were incubated at 30° C. for 80 minutes. […] Incorporation of ^33Pi was determined with a microplate scintillation counter (Microbeta Trilux, Wallac). […]

VEGF-R2 [1] = target: T4, VEGF-R2 (Homo sapiens, UniProt P35968); test: as above; assay type: biochemical; design: made in house; host or cells: Sf9 insect cells (baculovirus); conditions: for Inhibition of Kinases IC50 / IC50: panel of 24 kinases, 1 μM ATP; for IC50: read-out: Inhibition of Kinases IC50
T4 sequence (P35968 20-1356): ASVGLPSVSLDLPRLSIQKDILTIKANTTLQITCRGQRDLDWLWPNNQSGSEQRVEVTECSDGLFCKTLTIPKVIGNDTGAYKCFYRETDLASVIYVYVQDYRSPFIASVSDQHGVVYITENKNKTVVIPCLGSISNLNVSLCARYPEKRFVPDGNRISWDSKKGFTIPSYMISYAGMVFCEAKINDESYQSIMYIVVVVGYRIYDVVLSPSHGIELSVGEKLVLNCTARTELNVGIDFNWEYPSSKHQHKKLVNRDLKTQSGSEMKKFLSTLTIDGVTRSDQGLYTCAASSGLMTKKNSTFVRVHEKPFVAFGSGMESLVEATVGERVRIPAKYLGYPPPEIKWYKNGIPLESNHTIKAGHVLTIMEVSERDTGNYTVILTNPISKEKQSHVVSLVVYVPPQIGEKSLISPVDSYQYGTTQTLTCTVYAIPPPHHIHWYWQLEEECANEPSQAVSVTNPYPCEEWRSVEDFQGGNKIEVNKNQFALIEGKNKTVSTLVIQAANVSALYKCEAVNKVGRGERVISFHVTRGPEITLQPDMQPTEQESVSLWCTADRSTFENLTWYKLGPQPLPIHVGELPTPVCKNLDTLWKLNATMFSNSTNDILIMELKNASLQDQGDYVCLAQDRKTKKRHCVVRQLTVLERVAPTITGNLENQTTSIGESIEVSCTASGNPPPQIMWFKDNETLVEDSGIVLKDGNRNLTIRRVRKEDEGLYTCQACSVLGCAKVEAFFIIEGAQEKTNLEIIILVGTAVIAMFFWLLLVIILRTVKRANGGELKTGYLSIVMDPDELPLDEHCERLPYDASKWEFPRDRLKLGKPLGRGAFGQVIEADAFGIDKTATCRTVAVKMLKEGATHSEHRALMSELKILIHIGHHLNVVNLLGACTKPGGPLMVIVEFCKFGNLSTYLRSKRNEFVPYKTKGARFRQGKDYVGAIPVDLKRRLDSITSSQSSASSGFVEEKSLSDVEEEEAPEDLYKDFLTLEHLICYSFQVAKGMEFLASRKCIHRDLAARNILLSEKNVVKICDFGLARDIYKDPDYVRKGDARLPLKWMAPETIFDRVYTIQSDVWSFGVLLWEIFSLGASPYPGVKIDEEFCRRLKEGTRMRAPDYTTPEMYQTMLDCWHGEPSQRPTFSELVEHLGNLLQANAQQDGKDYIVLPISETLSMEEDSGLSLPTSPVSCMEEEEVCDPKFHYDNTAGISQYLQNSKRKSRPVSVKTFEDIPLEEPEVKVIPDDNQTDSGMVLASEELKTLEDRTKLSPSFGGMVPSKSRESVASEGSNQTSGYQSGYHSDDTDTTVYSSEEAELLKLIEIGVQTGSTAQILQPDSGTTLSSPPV
Description: as §1, §2, §3, §4, §5, §6

PDGFR-β = PDGFR-β (Homo sapiens, UniProt P09619); test: PDGFR-β autophosphorylation; assay type: cell-based; conditions: cellular autophosphorylation
Sequence of PDGFR-β (P09619 33-1106, species assumed): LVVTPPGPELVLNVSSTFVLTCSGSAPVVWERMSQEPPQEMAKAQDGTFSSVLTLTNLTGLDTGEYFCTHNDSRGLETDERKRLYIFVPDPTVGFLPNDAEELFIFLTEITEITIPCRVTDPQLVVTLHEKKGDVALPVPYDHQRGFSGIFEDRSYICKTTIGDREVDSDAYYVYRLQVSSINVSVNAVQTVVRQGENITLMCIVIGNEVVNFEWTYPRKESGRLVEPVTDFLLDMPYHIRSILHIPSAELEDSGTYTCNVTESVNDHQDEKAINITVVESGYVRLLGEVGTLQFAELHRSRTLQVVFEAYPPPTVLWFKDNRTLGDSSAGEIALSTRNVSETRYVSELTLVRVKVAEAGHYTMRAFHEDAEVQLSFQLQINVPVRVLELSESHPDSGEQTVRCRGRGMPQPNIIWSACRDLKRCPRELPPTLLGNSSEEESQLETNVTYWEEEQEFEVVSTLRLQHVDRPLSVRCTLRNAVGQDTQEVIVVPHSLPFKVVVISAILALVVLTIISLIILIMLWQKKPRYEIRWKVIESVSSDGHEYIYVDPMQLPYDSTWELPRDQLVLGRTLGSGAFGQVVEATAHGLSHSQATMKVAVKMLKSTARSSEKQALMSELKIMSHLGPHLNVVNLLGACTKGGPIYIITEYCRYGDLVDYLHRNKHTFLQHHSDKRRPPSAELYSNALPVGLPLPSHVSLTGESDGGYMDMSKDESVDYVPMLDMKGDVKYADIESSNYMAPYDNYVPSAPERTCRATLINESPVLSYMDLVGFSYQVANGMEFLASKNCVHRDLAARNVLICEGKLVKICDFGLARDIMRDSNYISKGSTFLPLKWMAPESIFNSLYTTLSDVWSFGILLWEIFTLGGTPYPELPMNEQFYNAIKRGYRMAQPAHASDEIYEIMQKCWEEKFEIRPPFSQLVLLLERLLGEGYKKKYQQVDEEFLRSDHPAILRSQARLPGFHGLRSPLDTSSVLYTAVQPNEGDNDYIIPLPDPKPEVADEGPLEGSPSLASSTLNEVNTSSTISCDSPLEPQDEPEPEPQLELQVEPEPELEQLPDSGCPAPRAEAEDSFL

VEGF-R2 [2] = target: T4, VEGF-R2; test: VEGF-R2 autophosphorylation in presence of VEGF165 in immortalized HUVECs (ELISA); assay type: cell-based; conditions: 90 min incubation, then VEGF165 for 7 min, read-out: cellular IC50, VEGF-R2 autophosphorylation
Description: The potential efficacy of Compound 31 in vivo was assessed by measuring the level of VEGF-R2 autophosphorylation in the presence of its ligand (VEGF165). Thus immortalized HUVECs known to express high levels of VEGF-R2 were incubated with inhibitor 31 for 90 min. and then stimulated with VEGF165 for 7 min. The level of autophosphorylation was measured by ELISA using antiVEGF-R2 as capture antibody and anti-phosphotyrosine as detection antibody. Results are expressed as percentage of maximal autophosphorylation in the absence of inhibitor (FIGS. 1 and 2).
A number of RALs such as pochonins C and D are substituted with a chlorine atom at the 5 position rather than a methoxy, as with analogue 31. […] The potential efficacy of this compound in vivo was then assessed by measuring the level of VEGF-R2 autophosphorylation in the presence of its ligand (VEGF165). […] The level of autophosphorylation was measured by ELISA using antiVEGF-R2 as capture antibody and anti-phosphotyrosine as detection antibody. Results are expressed as percentage of maximal autophosphorylation in the absence of inhibitor (FIG. 3).
The potential efficacy of compound 31 in vivo was assessed by measuring the level of VEGF-R2 autophosphorylation in the presence of its ligand (VEGF165). […] The level of autophosphorylation was measured by ELISA using antiVEGF-R2 as capture antibody and anti-phosphotyrosine as detection antibody. […]

PDGFR-beta = target: T5, PDGFR-beta (Homo sapiens, UniProt P09619); test: radiometric protein kinase assay (33PanQinase Activity Assay); assay type: biochemical
T5 construct: made in house; host or cells: Sf9 insect cells (baculovirus)
T5 sequence (P09619 33-1106): as the sequence (P09619 33-1106, species assumed) above
Source text: as §2, §3, §4, §5, §6

TIE2 = TIE2 (Homo sapiens, UniProt Q02763); test: autophosphorylation of TIE2; assay type: cell-based; conditions: cellular autophosphorylation; result in words
PDGFR-α = target: T6, PDGFR-α (Homo sapiens, UniProt P16234); test: panel of 127 kinases, radiometric protein kinase assay; assay type: biochemical; conditions: FIG. 1, result in words
T6 construct: made in house; host or cells: Sf9 insect cells (baculovirus)
T6 sequence (P16234 24-1089): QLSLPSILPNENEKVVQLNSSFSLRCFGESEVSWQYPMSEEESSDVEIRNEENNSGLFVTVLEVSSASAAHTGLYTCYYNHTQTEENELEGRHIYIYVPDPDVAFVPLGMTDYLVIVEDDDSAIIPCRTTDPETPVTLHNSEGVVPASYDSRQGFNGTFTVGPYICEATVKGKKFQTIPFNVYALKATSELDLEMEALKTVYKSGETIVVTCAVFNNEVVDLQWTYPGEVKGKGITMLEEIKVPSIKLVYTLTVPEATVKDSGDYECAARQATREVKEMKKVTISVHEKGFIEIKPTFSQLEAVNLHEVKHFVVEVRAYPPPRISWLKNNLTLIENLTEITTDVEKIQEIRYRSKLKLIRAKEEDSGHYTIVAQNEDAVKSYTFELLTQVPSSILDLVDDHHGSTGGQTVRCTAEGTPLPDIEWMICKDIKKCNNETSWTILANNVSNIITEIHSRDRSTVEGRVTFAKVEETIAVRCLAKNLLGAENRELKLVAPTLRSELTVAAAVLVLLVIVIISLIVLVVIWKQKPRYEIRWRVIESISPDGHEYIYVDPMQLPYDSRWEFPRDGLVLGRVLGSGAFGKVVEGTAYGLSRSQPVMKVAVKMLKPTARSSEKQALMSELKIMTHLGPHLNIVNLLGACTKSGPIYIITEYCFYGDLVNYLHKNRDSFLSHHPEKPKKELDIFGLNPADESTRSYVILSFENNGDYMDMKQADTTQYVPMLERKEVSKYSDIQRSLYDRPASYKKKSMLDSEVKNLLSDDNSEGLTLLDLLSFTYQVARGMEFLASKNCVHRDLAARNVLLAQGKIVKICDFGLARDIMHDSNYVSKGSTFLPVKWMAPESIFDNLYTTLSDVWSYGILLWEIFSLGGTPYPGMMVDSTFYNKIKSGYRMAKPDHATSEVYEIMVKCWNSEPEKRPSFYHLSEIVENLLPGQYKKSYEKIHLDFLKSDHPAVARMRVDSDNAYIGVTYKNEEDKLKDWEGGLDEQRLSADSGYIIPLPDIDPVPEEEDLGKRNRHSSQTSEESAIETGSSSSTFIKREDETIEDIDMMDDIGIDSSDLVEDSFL
Source text: as §2, §3, §4, §7, §6

MEK1 = target: T7, MEK1 (Homo sapiens, UniProt Q02750); test: as above; assay type: biochemical; conditions: FIG. 1, result in words
T7 construct: made in house; host or cells: Sf9 insect cells (baculovirus)
Source text: as §2, §3, §4, §7, §6

[3] = panel of 127 kinases, FIG. 1, result in words

| Compound | Inhibition of Kinases IC50 (VEGF-R3) | IC50 (VEGF-R3) | Inhibition of Kinases IC50 (FLT3) | IC50 (FLT3) | IC50 (B-RAF-VE) | Inhibition of Kinases IC50 (VEGF-R2 [1]) | IC50 (VEGF-R2 [1]) | IC50 (PDGFR-β) | IC50 (VEGF-R2 [2]) | Inhibition of Kinases IC50 (PDGFR-beta; PDGFR-beta, panel of 24 kinases, 1 μM ATP) | IC50 (PDGFR-beta; PDGFR-beta, panel of 24 kinases, 1 μM ATP, read-out: Inhibition of Kinases IC50) | inhibitory activity (IC50) in a panel of 127 kinases (PDGFR-beta; PDGFR-β, panel of 127 kinases, FIG. 1, result in words) | inhibitory activity (IC50) in a panel of 127 kinases (VEGF-R3; [3]) | inhibitory activity (IC50) in a panel of 127 kinases (FLT3; [3]) | autophosphorylation of TIE2 (TIE2) | inhibitory activity (IC50) in a panel of 127 kinases (PDGFR-α) | inhibitory activity (IC50) in a panel of 127 kinases (MEK1) | inhibitory activity (IC50) in a panel of 127 kinases (VEGF-R2 [1]; [3]) |
| --- | --- | --- | --- | --- | --- | --- | --- | --- | --- | --- | --- | --- | --- | --- | --- | --- | --- | --- |
| COc1cc(O)c2c(c1)/C=C/C[C@H](O)[C@H](O)C(=O)/C=C\C[C@H](C)OC2=O [Compound 3, 5-Z-7-oxozeaenol] | potent inhibitory activity | 110 nM | potent inhibitory activity | 170 nM | 6300 nM | potent inhibitory activity | 52 nM | – | – | – | – | – | – | – | – | – | – | – |
| COc1cc(O)c2c(c1Cl)/C=C/C[C@H](O)[C@H](O)C(=O)/C=C\C[C@H](C)OC2=O [Compound 31] | potent inhibitory activity | 210 nM | potent inhibitory activity | 1800 nM | – | potent inhibitory activity | 90 nM | 13000 nM | 440 nM | potent inhibitory activity | 370 nM | nanomolar concentrations; also recorded: nM concentrations | nanomolar concentrations; also recorded: nM concentrations | low micromolar concentrations; also recorded: low μM concentrations | unaffected | nanomolar concentrations; also recorded: nM concentrations | nanomolar concentrations; also recorded: nM concentrations | nanomolar concentrations; also recorded: nM concentrations |
